The text below walks through data of patent publication US20200329698A1, “COMPOSITIONS FOR ORGAN GRAFT PRESERVATION AND METHODS OF USE” (Nobilis Therapeutics, Inc., priority 2019, published 2020).

For this experiment, the system named is rat renal grafts from DBD donation or DCD donation. The protocol: Rat renal transplantation was performed. Rat donor kidneys were transplanted orthotopically into recipients by using standard microvascular techniques. […] After the specified period of cold ischemia, the recipient's left kidney was extracted, and the donor renal vein was connected to the recipient renal vein through end-to-end anastomosis. The arterial anastomosis between the donor aortic patch was connected to the recipient aorta in an end-to-side manner. Urinary reconstruction was performed by ureter-to-bladder anastomosis. The total surgical ischemia time was restricted to <45 min. The contralateral kidney was removed immediately after engraftment.
Tumor necrosis factor-α (TNF-α) in the culture medium were detected by ELISA (Human TNF-α ELISA kits, INVITROGEN®, UK). Rat lung tissue and serum TNF-α were measured by ELISA (Rat TNF-α ELISA kits, INVITROGEN®, UK).
MTS was performed on paraffin-embedded tissue according to the manufacturer's instructions (MTS kit; SIGMA-ALDRICH®, Ltd., Poole, UK). The amount of collagen deposition (percentage of MTS-stained area) was then digitally quantified with ImageJ software (U.S. National Institutes of Health, Bethesda, Md., USA).
Blood samples were collected when the animals were euthanized. After centrifugation, serum urea and creatinine concentrations were measured with an AU2700 analyzer (OLYMPUS).
A rat renal graft machine perfusion model was developed, (see FIG. 1B) to simulate the renal graft preservation process. A series of experiments were conducted using the Fischer-to-Lewis allogeneic renal transplant model. Grafts from donors after brain death (DBD) or cardiac arrest (DCD) were used. The preserving solution was saturated with dexmedetomidine at 0.1 nM[32]. The grafts were extracted and then machine-perfused with UW solution at 4° C.[18] with a flow rate of 1.5-2 ml/min [39] for 4 hours and then kept in the preserving solution until 24 hours. Grafts were then transplanted into Lewis recipient immediately following extraction (cold-ischemia 0 hr), or stored in preservative solution for 24 hr (cold-ischemia 24 hr), The orthotopic renal transplantation into Lewis recipients was conducted and their contralateral kidneys were removed at the end of surgery. The recipient received cyclosporine A (5 mg/kg/day intramuscular injection per day) for 10 days to prevent acute immune rejection.
With respect to FIGS. 4A-4J, Fischer rat renal grafts from DBD donation or DCD donation were stored in UW preservative solution at 4° C., saturated with DEX for up to 24 hrs (Cold ischemia CI 24 hr), grafts harvested from donor (cold ischemia CI 0 hr) serves as control. (A and B) Serum creatinine and urea concentration were analyzed 24 hours after transplantation (n=6). (C and D) Tissue cytokine TNF-α and IL-1β concentration was assessed by ELISA. (E) TUNEL staining of renal tubules in renal cortices 24 hours after transplantation. Scale bar=50 μm. In DCD grafts, Infiltrated CD68+ macrophages (Red fluoresce; F) and renal fibrosis (blue MTS staining; G) on day 8 after transplantation were assessed. In both DCD and DBD grafts, (H) Analysis of the percentage of TUNEL+ tubular cells in renal cortices. (I) The number of CD68+ macrophage, and (J) the area of MTS staining. Data is expressed as mean±SD (n=6). […] CI: cold ischemia, Vh: Vehicle, Dex: Dexmedetomidine.

[1] abbreviates: after transplantation, graft stored with Dex 0.1 nM, CI 24 hr.
The mark [2] stands for this setting: day 16 after surgery, graft stored with Dex 0.1 nM.

The structures appear in SMILES notation.

Regarding `Cc1cccc([C@H](C)c2cnc[nH]2)c1C` [Dexmedetomidine], the “cell death (number of TUNEL+ cells) in renal cortices” value (24 hours after transplantation, graft stored with Dex 0.1 nM) is reported as “reduced”. Under setting [1], the “tissue level of cytokine IL-1β (ELISA)” value is reported as “reduced tissue level” and the “tissue level of cytokine TNF-α (ELISA)” value is recorded as “reduced tissue level”. The “renal functional recovery (serum creatinine and urea)” value (day 1 (24 hours) after transplantation, graft stored with Dex 0.1 nM, CI 24 hr) is “induced a quick functional recovery”. Moreover, under setting [2], the “macrophage infiltration (number of CD68+ cells)” value is recorded as “attenuated” and the “renal fibrosis (MTS staining)” value was “attenuated”. For the setting “overall conclusion”, the “protection in ex vivo renal allograft from cardiac arrest donation” value is on record as “conferred significant protection”.
